{
  "source": "patent US20260137084A1",
  "about": "“NOVALURON MIXTURES FOR EFFICIENT INSECTICIDAL CONTROLS” (ADAMA MAKHTESHIM LTD., priority 2022, published 2026)",
  "key": {"[1]": {"tested_on": "S. frugiperda", "assay": "Insecticidal efficacy (% control) and Colby synergy against S. frugiperda", "type": "in vivo, Spodoptera frugiperda", "details": "120 hours after treatment", "procedure": "(§1) Different concentrations of each of the active ingredients are applied to different species of insects. The percent controls are determined sometime after treatment.\n(§2) Colby's method, is used to determine if synergy exists for a combination of active ingredients. According to Colby, the expected action (E) of active ingredients A+B is:\n(§3) [formula] • where E=expected efficacy, A and B=the efficacy of two active ingredients A and B at a given dose.\n(§4) When the percentage of control observed (O) for the combination is greater than the expected (E) percentage, there is a synergistic effect. The synergism ratio (R) is calculated as the ratio between the […].\n(§5) The insecticidal compounds A (Novaluron) and B (mix partner) are formulated as equivalent compositions to eliminate the effects of differing formulation inerts on biological activity. Efficacy of the insecticidal compositions is evaluated with reference to a scale of 0% to 100% in comparison with untreated control plots. 0 means no damage and 100 means complete destruction of the harmful pests.\n(§6) The experiments were conducted by applying commercially available formulations of Novaluron and other mixture partners, alone or with their tank-mixed compositions with the same weight ratio. The compositions were diluted with water or some other suitable solvents to the stated concentration of the active compounds.\n(§7) Each formulation with active ingredient is diluted with water or other suitable solvent(s) to the ppm (parts per million) level and biological efficacy trials on pests are conducted."}, "[2]": {"tested_on": "H. armigera", "assay": "Insecticidal efficacy (% control) and Colby synergy against H. armigera", "type": "in vivo, Helicoverpa armigera", "details": "120 hours after treatment", "procedure": "as §1, §2, §3, §4, §5, §6, §7"}},
  "data": [
    {"molecule": "O=C(NC(=O)c1c(F)cccc1F)Nc1ccc(OC(F)(F)C(F)OC(F)(F)F)c(Cl)c1", "note": "(single isomer, unassigned; (+)) [Novaluron, (+)-1-[3-chloro-4-(1,1,2-trifluoro-2-trifluoromethoxyethoxy)phenyl]-3-(2,6-difluorobenzoyl) urea]", "values": [
      {"measurement": "Observed % control (O)", "setting": "[1]; Rate 0.01 ppm", "value": 16, "unit": "%"},
      {"measurement": "Observed % control (O)", "setting": "[2]; Rate 0.1 ppm", "value": 20, "unit": "%"},
      {"measurement": "Observed % control (O)", "setting": "[2]; Rate 0.2 ppm", "value": 20, "unit": "%"}
    ]},
    {"molecule": "Cc1cccn2c(=O)c(-c3cc(Cl)cc(Cl)c3)c([O-])[n+](Cc3cnc(Cl)s3)c12", "note": "[Dicloromezotiaz]", "values": [
      {"measurement": "Observed % control (O)", "setting": "[1]; Rate 1 ppm", "value": 0, "unit": "%"},
      {"measurement": "Observed % control (O)", "setting": "[1]; Rate 2.5 ppm", "value": 40, "unit": "%"},
      {"measurement": "Observed % control (O)", "setting": "[1]; Rate 5 ppm", "value": 20, "unit": "%"},
      {"measurement": "Observed % control (O)", "setting": "[2]; Rate 40 ppm", "value": 40, "unit": "%"}
    ]},
    {"molecule": "O=C(N=c1ccccn1Cc1ccc(Cl)nc1)C(F)(F)F", "note": "[Flupyrimin]", "values": [
      {"measurement": "Observed % control (O)", "setting": "[1]; Rate 10 ppm", "value": 10, "unit": "%"}
    ]},
    {"molecule": "CCN1OCC(NC(=O)c2ccc(C3=NOC(c4cc(Cl)c(F)c(Cl)c4)(C(F)(F)F)C3)cc2C)C1=O", "note": "(centres unmarked) [Isocycloseram]", "values": [
      {"measurement": "Observed % control (O)", "setting": "[1]; Rate 5 ppm", "value": 20, "unit": "%"},
      {"measurement": "Observed % control (O)", "setting": "[1]; Rate 10 ppm", "value": 20, "unit": "%"},
      {"measurement": "Observed % control (O)", "setting": "[2]; Rate 10 ppm", "value": 20, "unit": "%"},
      {"measurement": "Observed % control (O)", "setting": "[2]; Rate 20 ppm", "value": 50, "unit": "%"}
    ]},
    {"molecule": "CCN(C(=O)CCSCCC(F)(F)F)c1cn(-c2cccnc2)nc1Cl", "note": "[Tyclopyrazoflor]", "values": [
      {"measurement": "Observed % control (O)", "setting": "[1]; Rate 5 ppm", "value": 20, "unit": "%"},
      {"measurement": "Observed % control (O)", "setting": "[2]; Rate 160 ppm", "value": 20, "unit": "%"}
    ]},
    {"molecule": "Nicofluprole", "values": [
      {"measurement": "Observed % control (O)", "setting": "[1]; Rate 0.5 ppm", "value": 20, "unit": "%"},
      {"measurement": "Observed % control (O)", "setting": "[1]; Rate 1 ppm", "value": 40, "unit": "%"},
      {"measurement": "Observed % control (O)", "setting": "[2]; Rate 5 ppm", "value": 30, "unit": "%"}
    ]}
  ]
}
